By IC50 is commonly meant the concentration needed to halve the response being measured. Read a low IC50 as greater potency in that assay.

The target in experiment [1] is Neprilysin (Homo sapiens, UniProt P08473). The experiment can be described thus: Inhibition of human NEP ectodomain using MCA-RPPGFSAFK-(Dnp)-OH peptide as substrate by continuous activity assay.
The target in experiment [2] is T1, Angiotensin-converting enzyme (Homo sapiens, UniProt P12821). As to the kind of experiment: Inhibition of human glycosylated N-terminal catalytic ACE domain using Cbz-Phe-His-Leu substrate by fluorogenic end point activity assay.
Experiment [3] concerns the target T1, Angiotensin-converting enzyme. As to the kind of experiment: Inhibition of human glycosylated C-terminal catalytic ACE domain using Cbz-Phe-His-Leu substrate by fluorogenic end point activity assay.
Experiment [4] is filed under the species Homo sapiens. As to the kind of experiment: Selectivity factor, ratio of IC50 for human glycosylated nACE to IC50 for human glycosylated cACE.

T1 sequence (P12821 whole entry, the tested form may be a part): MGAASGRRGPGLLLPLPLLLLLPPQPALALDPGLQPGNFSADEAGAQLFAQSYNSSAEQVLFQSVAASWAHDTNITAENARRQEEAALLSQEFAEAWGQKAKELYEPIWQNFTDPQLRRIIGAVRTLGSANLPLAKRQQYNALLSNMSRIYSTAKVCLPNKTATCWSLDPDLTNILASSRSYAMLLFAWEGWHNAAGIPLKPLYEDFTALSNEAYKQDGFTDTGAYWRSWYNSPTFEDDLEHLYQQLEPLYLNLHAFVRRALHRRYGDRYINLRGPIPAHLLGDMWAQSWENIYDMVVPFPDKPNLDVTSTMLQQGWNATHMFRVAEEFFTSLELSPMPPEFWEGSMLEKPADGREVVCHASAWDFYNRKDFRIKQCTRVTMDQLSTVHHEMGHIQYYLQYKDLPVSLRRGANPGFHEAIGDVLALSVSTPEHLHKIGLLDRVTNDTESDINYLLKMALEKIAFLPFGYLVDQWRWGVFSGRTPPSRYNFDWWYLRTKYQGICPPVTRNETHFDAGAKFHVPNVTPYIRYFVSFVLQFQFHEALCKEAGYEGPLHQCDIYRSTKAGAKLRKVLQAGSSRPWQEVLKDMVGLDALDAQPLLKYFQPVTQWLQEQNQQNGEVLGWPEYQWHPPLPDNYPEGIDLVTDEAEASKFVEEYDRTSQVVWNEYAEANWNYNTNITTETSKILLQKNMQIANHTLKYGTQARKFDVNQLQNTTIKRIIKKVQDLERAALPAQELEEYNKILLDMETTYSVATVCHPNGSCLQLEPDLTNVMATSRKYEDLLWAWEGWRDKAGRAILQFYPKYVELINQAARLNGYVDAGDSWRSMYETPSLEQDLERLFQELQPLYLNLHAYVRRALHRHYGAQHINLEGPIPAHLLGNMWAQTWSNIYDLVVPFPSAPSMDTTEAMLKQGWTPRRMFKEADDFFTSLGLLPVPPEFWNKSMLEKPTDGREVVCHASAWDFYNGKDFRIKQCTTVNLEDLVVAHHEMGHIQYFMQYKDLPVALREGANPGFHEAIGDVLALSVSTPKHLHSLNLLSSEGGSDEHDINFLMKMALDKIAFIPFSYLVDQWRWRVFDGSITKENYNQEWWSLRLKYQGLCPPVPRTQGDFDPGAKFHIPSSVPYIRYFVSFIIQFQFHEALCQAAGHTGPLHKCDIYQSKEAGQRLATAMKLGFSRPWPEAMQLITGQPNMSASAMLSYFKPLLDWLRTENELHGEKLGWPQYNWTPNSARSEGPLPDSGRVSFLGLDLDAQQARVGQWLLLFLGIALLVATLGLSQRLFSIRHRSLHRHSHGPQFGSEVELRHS
Sequence of Neprilysin (P08473 whole entry, the tested form may be a part): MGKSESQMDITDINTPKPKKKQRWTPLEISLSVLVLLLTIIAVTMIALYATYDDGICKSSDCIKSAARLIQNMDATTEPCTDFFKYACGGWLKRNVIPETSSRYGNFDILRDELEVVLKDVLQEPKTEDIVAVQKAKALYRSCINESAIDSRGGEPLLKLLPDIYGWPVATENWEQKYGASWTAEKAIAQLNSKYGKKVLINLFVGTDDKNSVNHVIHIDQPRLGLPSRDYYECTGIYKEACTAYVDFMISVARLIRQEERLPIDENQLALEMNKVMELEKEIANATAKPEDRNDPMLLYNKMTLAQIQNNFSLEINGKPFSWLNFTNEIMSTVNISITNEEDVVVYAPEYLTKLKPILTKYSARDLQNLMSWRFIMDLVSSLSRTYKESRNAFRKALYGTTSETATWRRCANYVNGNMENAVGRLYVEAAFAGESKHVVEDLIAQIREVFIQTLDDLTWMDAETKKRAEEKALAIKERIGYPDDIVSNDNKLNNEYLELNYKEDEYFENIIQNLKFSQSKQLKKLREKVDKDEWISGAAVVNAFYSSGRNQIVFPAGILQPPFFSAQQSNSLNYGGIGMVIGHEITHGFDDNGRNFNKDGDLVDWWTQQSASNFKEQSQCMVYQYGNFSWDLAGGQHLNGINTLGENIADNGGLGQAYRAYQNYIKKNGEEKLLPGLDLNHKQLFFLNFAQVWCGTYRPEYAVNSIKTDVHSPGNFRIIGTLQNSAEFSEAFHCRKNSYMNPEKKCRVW

Regarding `NCCCC[C@H](N[C@@H](CCc1ccccc1)C(=O)O)C(=O)N[C@@H](Cc1c[nH]c2ccccc12)C(=O)O`, the IC50 in experiment [1] is above 250 µM; in experiment [2], 3.1 µM; in experiment [3], 80 nM. Further, the Ratio IC50 in experiment [4] stood at 39.

With `Cc1ccc([C@H]2CC[C@@H](C(=O)O)N2C(=O)CN[C@@H](CCc2ccccc2)C(=O)O)cc1`, the IC50 is above 100 µM in experiment [1], 6 µM in experiment [2] and 4100 nM in experiment [3]. Besides, the Ratio IC50 in experiment [4] was determined as 1.5.

In turn, `O=C(NCC(=O)N1[C@@H](c2cccc(O)c2)CC[C@H]1C(=O)O)[C@@H](S)Cc1ccc(O)cc1` came in with an IC50 in experiment [3] of 9 nM.

`NCCCC[C@H](NC(=O)[C@@H](S)Cc1ccccc1)C(=O)N[C@@H](Cc1c[nH]c2ccccc12)C(=O)O` registered an IC50 in experiment [3] of 7 nM. The IC50 values of the last two compounds are within 1.5-fold of each other.

The values above are taken from ChEMBL document CHEMBL6115051, “Design of Novel Mercapto-3-phenylpropanoyl Dipeptides as Dual Angiotensin-Converting Enzyme C-Domain-Selective/Neprilysin Inhibitors” (J Med Chem, 2025).
